Assay results from patent publication US4622217A, “I-4-amino-3-iodobenzylguanidine as imaging and therapeutic agent” (The Regents of the University of Michigan, priority 1984, dated 1986).

What was measured:
adrenergic tissues = assay: Accumulation in adrenergic tissues; assay type: in vivo; details: localizes in adrenergic neurons of the heart and chromaffin granules of the adrenal medulla
[1] = Biological tissue distribution in rats after intravenous injection; assay type: in vivo, rat (Female Sprague-Dawley); details: 90 min, i.v. 25 μCi
Description: (§1) Biological tissue distribution studies were performed in rats, dogs, and monkeys injected intravenously with 25 μCi, 100 μCi and 100 μCi, respectively, of I-125 4-amino-3-iodobenzylguanidine in an average volume of 0.2 ml, 2 ml, and 1 ml, respectively. Representative samples of tissues were counted in an autogamma counter with corrections made for radioactive decay, background, and counter efficiency. To normalize for differences in animal weights, tissue concentrations are expressed as percent kilogram dose per gram.

[2] = Biological tissue distribution in dogs after intravenous injection; assay type: in vivo, dog (Female Mongrel); details: i.v. 100 μCi
Description: as §1

[3] = Biological tissue distribution in monkeys after intravenous injection; assay type: in vivo, monkey; details: 3 hours, i.v. 100 μCi
Description: as §1

[4] = Radio-decomposition on storage in buffer; assay type: physicochemical; details: up to 14 days, pH 4.8 sodium acetate buffer (0.005M), 1% (v/v) benzyl alcohol, 4° C., dark
[5] = tested on: adrenergic nerves of the heart; assay: Selectivity for the adrenergic nerves of the heart; details: in vivo

In the case of `N=C(N)NCc1ccc(N)c(I)c1` [4-amino-3-iodobenzylguanidine], the “accumulation in adrenergic tissues” value (adrenergic tissues) is reported as “accumulated in adrenergic tissues in a manner similar to norepinephrine and guanethidine”.
In the case of `N=C(N)NCc1ccc(N)c([125I])c1` [I-125 4-amino-3-iodobenzylguanidine], the “tissue concentration (Mean + S.E.M.)” value ([1]; Blood) is reported as 0.08 ± .01 % Kg Dose/g, the “tissue concentration (Mean + S.E.M.)” value ([1]; Left Atrium) is reported as 0.55 ± .06 % Kg Dose/g and the “tissue concentration (Mean + S.E.M.)” value ([1]; Left Ventricle) is reported as 0.46 ± .05 % Kg Dose/g. For the same molecule, the “tissue concentration (Mean + S.E.M.)” value ([1]; Liver) was 0.09 ± .01 % Kg Dose/g, the “tissue concentration (Mean + S.E.M.)” value ([1]; Right Atrium) was 0.66 ± .05 % Kg Dose/g and the “tissue concentration (Mean + S.E.M.)” value ([1]; Right Ventricle) was 0.70 ± .02 % Kg Dose/g. The “tissue concentration (Mean + S.E.M.)” value ([1]; Spleen) was 0.35 ± .01 % Kg Dose/g, the tissue concentration (Mean + S.E.M.) ([2]; 30 min, Adrenal Cortex) was 0.62 ± 0.16 % kg dose/g and the tissue concentration (Mean + S.E.M.) ([2]; 30 min, Adrenal Medulla) was 8.8 ± 2.8 % kg dose/g. It also gave a tissue concentration (Mean + S.E.M.) ([2]; 30 min, Blood) of 0.03 % kg dose/g, a tissue concentration (Mean + S.E.M.) ([2]; 30 min, Heart (Left Ventricle)) of 0.49 ± 0.05 % kg dose/g and a tissue concentration (Mean + S.E.M.) ([2]; 30 min, Liver) of 0.36 ± 0.02 % kg dose/g. It also gave a tissue concentration (Mean + S.E.M.) ([2]; 30 min, Lung) of 0.88 ± 0.61 % kg dose/g, a tissue concentration (Mean + S.E.M.) ([2]; 30 min, Muscle) of 0.05 ± 0.02 % kg dose/g and a tissue concentration (Mean + S.E.M.) ([2]; 30 min, Thyroid) of 1.02 ± 0.06 % kg dose/g. It also gave a tissue concentration (Mean + S.E.M.) ([2]; 2 hours, Adrenal Cortex) of 0.51 ± 0.15 % kg dose/g, a tissue concentration (Mean + S.E.M.) ([2]; 2 hours, Adrenal Medulla) of 10.4 ± 0.8 % kg dose/g and a tissue concentration (Mean + S.E.M.) ([2]; 2 hours, Blood) of 0.03 % kg dose/g. It also gave a tissue concentration (Mean + S.E.M.) ([2]; 2 hours, Heart (Left Ventricle)) of 0.52 ± 0.02 % kg dose/g, a tissue concentration (Mean + S.E.M.) ([2]; 2 hours, Liver) of 0.2 ± 0.02 % kg dose/g and a tissue concentration (Mean + S.E.M.) ([2]; 2 hours, Lung) of 1.26 ± 0.2 % kg dose/g. The tissue concentration (Mean + S.E.M.) ([2]; 2 hours, Muscle) was 0.04 ± 0.01 % kg dose/g, the tissue concentration (Mean + S.E.M.) ([2]; 2 hours, Thyroid) was 0.85 ± 0.11 % kg dose/g and the tissue concentration (Mean + S.E.M.) ([2]; 72 hours, Adrenal Cortex) was 0.13 ± 0.06 % kg dose/g. The tissue concentration (Mean + S.E.M.) ([2]; 72 hours, Adrenal Medulla) was 18.3 ± 1.8 % kg dose/g, the tissue concentration (Mean + S.E.M.) ([2]; 72 hours, Blood) was 0.02 % kg dose/g and the tissue concentration (Mean + S.E.M.) ([2]; 72 hours, Heart (Left Ventricle)) was 0.06 ± 0.01 % kg dose/g. It also gave a tissue concentration (Mean + S.E.M.) ([2]; 72 hours, Liver) of 0.05 % kg dose/g, a tissue concentration (Mean + S.E.M.) ([2]; 72 hours, Lung) of 0.09 ± 0.01 % kg dose/g and a tissue concentration (Mean + S.E.M.) ([2]; 72 hours, Muscle) of 0.01 % kg dose/g. The tissue concentration (Mean + S.E.M.) ([2]; 72 hours, Thyroid) was 14.6 ± 2.4 % kg dose/g, the “tissue concentration (Mean + S.E.M.)” value ([3]; Adrenal Cortex) was 0.60 ± .04 % Kg Dose/g and the “tissue concentration (Mean + S.E.M.)” value ([3]; Adrenal Modullae) was 1.98 ± .14 % Kg Dose/g. The “tissue concentration (Mean + S.E.M.)” value ([3]; Blood) was 0.03 ± .01 % Kg Dose/g, the “tissue concentration (Mean + S.E.M.)” value ([3]; Heart (Left Ventricle)) was 0.85 ± .11 % Kg Dose/g and the “tissue concentration (Mean + S.E.M.)” value ([3]; Liver) was 0.17 ± .04 % Kg Dose/g. For the same molecule, the “tissue concentration (Mean + S.E.M.)” value ([3]; Lung) was 0.99 ± .53 % Kg Dose/g, the “tissue concentration (Mean + S.E.M.)” value ([3]; Muscle) was 0.03 ± .55 % Kg Dose/g and the “tissue concentration (Mean + S.E.M.)” value ([3]; Thyroid) was 1.07 ± .55 % Kg Dose/g.
Work on `N=C(N)NCc1ccc(N)c([131I])c1` [I-131-labeled compound, ^131 I-4-Amino-3-Iodobenzylguanidine] yielded a degraded at 336 h [4] of under 4%.
For `N=C(N)NCc1ccc(N)c(I)c1` [radioiodinated compound, radioiodinated 4-amino-3-iodobenzylguanidine], the “selectivity for the adrenergic nerves of the heart” value [5] was “high degree of selectivity for the adrenergic nerves of the heart”.
